Laboratory results from patent US20130060020A1, “Compounds useful for treating neurodegenerative disorders” (Satori Pharmaceuticals, Inc., priority 2011, published 2013).
Like-named read-outs stand apart in the source and are kept apart here.

What was measured:
Type in all cases: cell-based
Details in all cases: Homo sapiens, 5 hours treatment
Aβ-40 = Aβ-40 MSD 3-plex ELISA, conditioned media of 2B7 cells
Procedure: (§1) Assays were conducted to determine the ability of a Compound of Formula I to modulate […], and Aβ-38.
(§2) Plates with capture antibodies were blocked for 1-2 hours at room temperature with 150 μL of the manufactures blocking reagent.
(§3) Cultured 2B7 cells in 96 well plate with 250 μL of media per well until confluent;
(§4) Prepared serial dilutions of compounds in DMSO at 100× the final desired concentration;
(§5) Washed wells with 2B7 cells 1× with 250 μL of media;
(§6) Diluted DMSO stocks 1:100 into media: • Added 250 μL of media containing compounds (1% DMSO) to wells with 2B7 cells for 5 hours at 37° C.
(§7) ELISA Sample Prep: • Diluted conditioned media: 1 part media with 1% DMSO and 1 part blocking buffer; • 150 μL of the 250 μL of conditioned media were used.
(§8) Prepared per manufacturer's protocol (see above). • Seven point standard curve samples were prepared that contained Aβ-42, Aβ-40, and Aβ-38. The highest concentration of Aβ-42 and Aβ-38 was 3,000 pg/mL and the highest concentration of Aβ-40 was 10,000 pg/mL. Subsequent serial dilutions were 1:3 and the final composition of each sample was 1 part blocking buffer and 1 part cell medium containing 1% DMSO.
(§9) Overnight Sample Incubation: • Blocked plates are washed 5× with MSD wash buffer with a plate washer; • […] and blocker G reagent in MSD blocking solution was added; • 25 μL of samples (1 part conditioned media containing 1% DMSO and 1 part MSD blocking buffer) were then added; • Plates were incubated overnight at 4 degrees C. or 2 hours at room temperature.
(§10) Final Wash and Readout: • Washed wells 5× with MSD wash buffer; • Added 150 μL 2×MSD read buffer; • Read with MSD imager.
(§11) Aβ peptide levels for each peptide were calculated from the standard curve using the MSD software provided with the MSD 2400 Imager. Percent vehicle values for each compound dosage were then calculated and fit to a 4 parameter curve generating IC50 values.
(§12) Conditioned media from 2B7 cells (Mayo) was collected after 5 hours of treatment and diluted with 1 volume of Meso Scale Discovery (MSD, Gaithersburg Md.) blocking buffer (1% BSA in MSD wash buffer). For total Aβ measurements, standard-bind, multi-array single spot 96 well MSD ELISA plates were coated with unlabeled 4G8 capture antibody (Covance, Princeton, N.J.) overnight at 4° C. and then blocked with 5% BSA in MSD wash buffer for 1 hour at room temperature with orbital shaking Diluted 2B7 conditioned media were added to the blocked in-house total Aβ MSD plates with SULFO-TAG 6E10 antibody (MSD). For Aβ38, 40 and 42 measurements, diluted 2B7 conditioned media were added to blocked human (6E10) Aβ 3-Plex plates (MSD). Total Aβ and Aβ 3-Plex plates were incubated for 2 hours at room temperature with orbital shaking followed by washing and reading according to the manufacturer's instructions (SECTOR® Imager 2400, MSD). Aβ concentrations were converted to percent vehicle values and used to construct dose response curves which were fitted to […] using GraphPad Prism version 5.00 for Windows, GraphPad Software, San Diego Calif. USA.

Aβ-42 = Aβ-42 MSD 3-plex ELISA, conditioned media of 2B7 cells
Procedure: as §1, §2, §3, §4, §5, §6, §7, §8, §9, §10, §11, §12

Aβ-38 = Aβ-38 MSD 3-plex ELISA, conditioned media of 2B7 cells
Procedure: as §1, §2, §3, §4, §5, §6, §7, §8, §9, §10, §11, §12

[1] = inflection of dose response curve, read-out: Aβ 40 DR IC50 Inflection
[2] = inflection of dose response curve, read-out: Aβ 42 DR IC50 Inflection

Row | Compound | IC50 (Aβ-40; [1]) | IC50 (Aβ-40; read-out: Aβ 40 IC50) | IC50 (Aβ-42; [2]) | IC50 (Aβ-42; read-out: Aβ 42 IC50) | IC50 (Aβ-38; inflection of dose response curve, read-out: Aβ 38 DR IC50 Inflection) | IC50 (Aβ-38; read-out: Aβ 38 IC50)
1 | CCO[C@@H]([C@H]1C[C@@H](C)[C@H]2[C@H](O1)[C@H](O)[C@@]1(C)[C@@H]3CC[C@H]4C(C)(C)[C@@H](O[C@H]5CN([C@H]6CCN(CC)C6=O)CCO5)CC[C@@]45C[C@@]35CC[C@]21C)C(C)(C)O [Compound I-1] | > 5000 nM | > 5000 nM | 501 to 1000 nM | 501 to 1000 nM | 501 to 1000 nM | 501 to 1000 nM
2 | CCO[C@@H]([C@H]1C[C@@H](C)[C@H]2[C@H](O1)[C@H](O)[C@@]1(C)[C@@H]3CC[C@H]4C(C)(C)[C@@H](O[C@H]5CN(C6CN(CCF)C6)CCO5)CC[C@@]45C[C@@]35CC[C@]21C)C(C)(C)O [Compound I-4] | > 5000 nM | 1000 to 5000 nM | 100 to 500 nM | 100 to 500 nM | – | 501 to 1000 nM
3 | CCO[C@@H]([C@H]1C[C@@H](C)[C@H]2[C@H](O1)[C@H](O)[C@@]1(C)[C@@H]3CC[C@H]4C(C)(C)[C@@H](O[C@H]5CN(C6CN(CC(F)F)C6)CCO5)CC[C@@]45C[C@@]35CC[C@]21C)C(C)(C)O [Compound I-9] | – | 1000 to 5000 nM | 100 to 500 nM | 100 to 500 nM | – | 501 to 1000 nM
4 | CCO[C@@H]([C@H]1C[C@@H](C)[C@H]2[C@H](O1)[C@H](O)[C@@]1(C)[C@@H]3CC[C@H]4C(C)(C)[C@@H](O[C@H]5CN(C(C)(C)C6CN(C)C6)CCO5)CC[C@@]45C[C@@]35CC[C@]21C)C(C)(C)O [Compound I-12] | – | 1000 to 5000 nM | 100 to 500 nM | 100 to 500 nM | – | 100 to 500 nM
5 | CCO[C@@H]([C@H]1C[C@@H](C)[C@H]2[C@H](O1)[C@H](O)[C@@]1(C)[C@@H]3CC[C@H]4C(C)(C)[C@@H](O[C@H]5CN(C6CN(C(C)(C)C)C6)CCO5)CC[C@@]45C[C@@]35CC[C@]21C)C(C)(C)O [Compound I-14] | – | 1000 to 5000 nM | < 100 nM | < 100 nM | – | 100 to 500 nM
6 | CCO[C@@H]([C@H]1C[C@@H](C)[C@H]2[C@H](O1)[C@H](O)[C@@]1(C)[C@@H]3CC[C@H]4C(C)(C)[C@@H](O[C@H]5CN(C(C)(C)C6CN(C7COC7)C6)CCO5)CC[C@@]45C[C@@]35CC[C@]21C)C(C)(C)O [Compound I-15] | > 5000 nM | 1000 to 5000 nM | 100 to 500 nM | 100 to 500 nM | – | 501 to 1000 nM
7 | CCO[C@@H]([C@H]1C[C@@H](C)[C@H]2[C@H](O1)[C@H](O)[C@@]1(C)[C@@H]3CC[C@H]4C(C)(C)[C@@H](O[C@H]5CN(C6CN(CC(C)(C)C)C6)CCO5)CC[C@@]45C[C@@]35CC[C@]21C)C(C)(C)O [Compound I-16] | – | 1000 to 5000 nM | 100 to 500 nM | 100 to 500 nM | – | 501 to 1000 nM
8 | CCO[C@@H]([C@H]1C[C@@H](C)[C@H]2[C@H](O1)[C@H](O)[C@@]1(C)[C@@H]3CC[C@H]4C(C)(C)[C@@H](O[C@H]5CN(C6(C)CN(CC(C)(C)C)C6)CCO5)CC[C@@]45C[C@@]35CC[C@]21C)C(C)(C)O [Compound I-33] | – | – | < 100 nM | 100 to 500 nM | – | 100 to 500 nM
9 | CCO[C@@H]([C@H]1C[C@@H](C)[C@H]2[C@H](O1)[C@H](O)[C@@]1(C)[C@@H]3CC[C@H]4C(C)(C)[C@@H](O[C@H]5CN(C6(C)CN(C7COC7)C6)CCO5)CC[C@@]45C[C@@]35CC[C@]21C)C(C)(C)O [Compound I-36] | – | – | 100 to 500 nM | 100 to 500 nM | – | 501 to 1000 nM
10 | CCO[C@@H]([C@H]1C[C@@H](C)[C@H]2[C@H](O1)[C@H](O)[C@@]1(C)[C@@H]3CC[C@H]4C(C)(C)[C@@H](O[C@H]5CN(CCN6CC(F)(F)C6)CCO5)CC[C@@]45C[C@@]35CC[C@]21C)C(C)(C)O [Compound I-64] | – | – | 100 to 500 nM | 100 to 500 nM | – | 501 to 1000 nM
